Columns and labels:
[1] = test system: superoxide anion (—O2^−) generation in coronary adventitia; assay: —O2^− production in uninjured coronary adventitia (SOD-inhibitable NBT reduction); type: cell-based, pigs; details: uninjured coronary adventitia; DETCA 10 mM
Procedure: (§1) The production of —O2^− is measured by superoxide dismutase- (SOD) or tiron-inhibitable conversion of nitroblue tetrazolium (NBT) to formazan. (20,21)
(§2) —O2^− production in coronary arteries: Coronary arteries are dissected free from adipose tissue and myocardium and then cut into ˜5 mm rings and placed in 24-well plates. Tissues are balanced in phenol-free DMEM at 37° C. in a CO2 incubator for 30 minutes with or without addition of SOD (SOD, 1000 unit/ml) or tiron (10 mM), both scavengers of —O2^− Freshly made NBT (100 mg/L in phenol-free DMEM) is added to the tissues with a gentle rocking for 3 hours. The reaction is terminated by addition of equal volume of 0.5N HCl, and tissues are rinsed twice with cold PBS. To extract formazan, tissues are pulverized in liquid nitrogen and dissolved in 100% pyridine at 80° C. for 30 minutes. After centrifugation, light absorbance is read in supernatants at 540 nm. The NBT reduction to formazan is calculated using the following formula: NBT reduction=A×V/(T×E×L) (A: absorbance; V: volume of solubilizing solution; T: time of incubation with NBT (minutes); E: extinction coefficient=0.72 mmol.mm; L: length of light travel through the solution, 10 mm). Either SOD- or tiron-inhibitable NBT reduction is calculated as measures of —O2^− production (pmol/min/mg wet weight). To determine the pathways mediating —O2^− production, several inhibitors are used in the experiments, including diphenyleneiodonium (DPI, 100 μM), rotenone (ROT, 50 μM), oxypurinol (OXY, 300 μM), N^ω-nitro-L-arginine methyl ester (L-NAME, 1 mM), and diethyldithio-carbamic acid (DETCA, 10 mM). The n value represents the number of vascular rings obtained from at least 3 animals per experimental condition.

[2] = test system: superoxide anion (—O2^−) generation in coronary media; assay: —O2^− production in uninjured coronary media (SOD-inhibitable NBT reduction); type: cell-based, pigs; details: DETCA 10 mM
Procedure: as §1
as §2, with “To determine the pathways mediating —O2^− production, several inhibitors are used in the experiments, including diphenyleneiodonium (DPI, 100 μM), rotenone (ROT, 50 μM), oxypurinol (OXY, 300 μM), N^ω-nitro-L-arginine methyl ester (L-NAME, 1 mM), and diethyldithio-carbamic acid (DETCA, 10 mM). The n value represents the number of vascular rings obtained from at least 3 animals per experimental condition.” left out

For `CCN(CC)C(=S)S` [DETCA, diethyldithio-carbamic acid], the “—O2^− generation in adventitia with SOD inhibitor” value [1] was 19.6 ± 2.5 pmol/mg/min and the “—O2^− generation in media with SOD inhibitor” value [2] was 36.3 ± 8.2 pmol/mg/min.
